Where two headings read alike, the source gives them in different places.
Test system: HCV Replicon IB
Experiment: HCV replicon assay in Huh-7 cells, genotype 1b (Rluc luciferase readout)
Assay type: cell-based, hepatitis C virus
Conditions: for EC50: read-out: EC50_HCV1B_; for inhibition at 10 µM: 72 h, 1b-Rluc replicon, read-out: Inhibition @ 10 uM in 1b-Rluc
[1] = Hepatitis C virus, Huh-7, 72 h, HCV1B replicon, Huh-7 cells, 3 days
[2] = Hepatitis C virus, Huh-7 cells, 3 days

SMILES	EC50 [1] [nM]	inhibition at 10 µM [2] [%]	other results
CC(C)(C)c1cc(C2CC2)cc2c(N)cc(-c3nnc(NCCCC(F)(F)F)o3)nc12 [Compound 356]	10.6		
COCCCNc1nnc(-c2cc(C)c3cc(C4CC4)cc(C(F)(F)F)c3n2)o1 [Compound 245]		100	
Cc1cc(C(=O)NC(CO)c2ccccc2)nc2c(C(F)(F)F)cc(-c3ccccc3)cc12 (stereo not shown) [Compound 167]		87.5	
CC(=O)N1CCNC(CNC(=O)c2cc(N)c3cc(OC(F)F)cc(C(F)(F)F)c3n2)C1 (stereo not shown) [Compound 317]	9790		
CCC(O)CNC(=O)c1cc(Cl)c2cc(OC(F)F)cc(C(F)(F)F)c2n1 (stereo not shown) [Compound 204]		95.5	
Cc1cc(-c2nnc(Nc3ccccn3)o2)nc2c(C(C)(C)C)cc(OCC(F)(F)F)cc12 [Compound 458]	0.83		
Cc1cc(C(=O)NCC(O)Cc2ccccc2)nc2c(C(F)(F)F)cc(-c3ccccc3)cc12 (stereo not shown) [Compound 169]		93	
Cc1cc(C(=O)NCC(C)(C)O)nc2c(C(F)(F)F)cc(C3CC3)cc12 [Compound 93]		99	
CC(C)(C)c1cc(C2CC2)cc2c(N)cc(-c3nnc(NC[C@@H]4CCCO4)o3)nc12 [Compound 350]	1.9		
O=C(NCC1COCCN1)c1cc(C(F)F)c2cc(C3CC3)cc(C(F)(F)F)c2n1 (stereo not shown) [Compound 213]		88.7	
CO[C@@H]1CNC(CNC(=O)c2cc(C)c3cc(C4CC4)cc(OC(F)(F)F)c3n2)C1 (stereo partly shown) [Compound 438]	46		
Cc1cc(C(=O)NCC2CCCCN2)nc2c(C(F)(F)F)cc(C3CCCC3)cc12 (stereo not shown) [Compound 151]		99.6	
COc1cc(C(F)(F)F)c2nc(-c3nnc(NCC(=O)N(C)C)o3)cc(C)c2c1 [Compound 279]		98.4	
Cc1cc(-c2nnc(NCc3ncc[nH]3)o2)nc2c(C(F)(F)F)cc(C3CC3)cc12 [Compound 257]		99.7	
Cc1cc(-c2nnc(NC3COC3)o2)nc2c(C(C)(C)C)cc(OCC(F)(F)F)cc12 [Compound 487]	41.5		
O=C(NCc1ccccn1)c1cc(O)c2cc(OC(F)(F)F)cc(-c3cccc4[nH]ncc34)c2n1 [Compound 239]		49.3	
Cc1cc(-c2nnc(NCC3OCCO3)o2)nc2c(C(C)(C)F)cc(C3CC3)cc12 [Compound 546]	7.48		
O=C(NCc1ccccn1)c1cnc2cc(-c3ccccc3)cc(C(F)(F)F)c2n1 [Compound 173]		86.3	
Cc1cc(-c2nnc(NCC3CC(F)(F)CN3)s2)nc2c(C(F)(F)F)cc(C3CC3)cc12 (stereo not shown) [Compound 310]	1570		
CC(C)(C)c1cc(C2CC2)cc2c(N)cc(-c3nnc(NCC4OCCO4)o3)nc12 [Compound 342]	2.11		
Cc1nnc(-c2cc(OC(F)(F)F)cc3c(N)cc(C(=O)NCc4ccccn4)nc23)[nH]1 [Compound 339]	1230		
Cc1cc(-c2nnc(NCC3OCCO3)o2)nc2c(C(C)(C)C)cc(OCC3CC3)cc12 [Compound 532]			EC50 (Hepatitis C virus, Huh-7, 72 h): 41.2 nM
Cc1cc(-c2nnc(NCCCCO)o2)nc2c(C(C)(C)C)cc(C3CC3)cc12 [Compound 284]		99.9	
Cc1cc(-c2nnc(NC[C@@H](O)CO)s2)nc2c(C(F)(F)F)cc(C3CC3)cc12 [Compound 303]		98.2	
Cc1cc(C(=O)NCC2COC2)nc2c(C(C)(C)C)cc(C3CC3)cc12 [Compound 424]	488		
Cc1cc(-c2nnc(N[C@H]3C[C@@H](O)C3)o2)nc2c(C(C)(C)C)cc(C3CC3)cc12 [Compound 421]	3.24		
CCC(=O)CNC(=O)c1cc(N)c2cc(C3CC3)cc(C(F)(F)F)c2n1 [Compound 220]		100	
Cc1cc(C(=O)NCC2CC2)nc2c(C(F)(F)F)cc(C3CC3)cc12 [Compound 102]		99.7	

SMILES	EC50 [1] [nM]	inhibition at 10 µM [2] [%]	other results
Cc1cc(-c2nnc(NC3CCNC3)o2)nc2c(C(C)(C)C)cc(C3CC3)cc12 (stereo not shown) [Compound 399]	888		
Cc1cc(-c2nnc(NCCCO)o2)nc2c(C(C)(C)C)cc(C3CC3)cc12 [Compound 282]		99.9	
Cc1cc(-c2nnc(NCC[C@H](C)O)s2)nc2c(C(C)(C)C)cc(C3CC3)cc12 [Compound 403]			EC50 (HCV1B replicon, Huh-7 cells, 3 days): 6.52 nM
Cc1cc(-c2nnc(NCCCS(N)(=O)=O)s2)nc2c(C(F)(F)F)cc(C3CC3)cc12 [Compound 309]	7090		
Cc1cc(C(F)(F)F)c2nc(C(=O)NCc3ccccn3)cc(C)c2c1 [Compound 143]		93.7	
Cc1cc(-c2nnc(NCCCO)o2)nc2c(C(F)(F)F)cc(C3CC3)cc12 [Compound 249]		100	
CCC(=O)CNC(=O)c1cc(C)c2cc(C3CC3)cc(C(F)(F)F)c2n1 [Compound 95]		100	
Cc1cc(-c2nnc(N[C@@H]3CCOC3)o2)nc2c(C(C)(C)C)cc(C3CC3)cc12 [Compound 405]	5.25		
Cc1cc(C(=O)NCc2ccccn2)nc2c(C(C)(C)C)cc(C3CC3)cc12 [Compound 226]		100	
Cc1cc(-c2nnc(NCC3OCCO3)o2)nc2c(OC(C)(C)C)cc(C3CC3)cc12 [Compound 548]	37.1		
CC(C)(C)c1cc(C2CC2)cc2c(N)cc(C(=O)NCc3ccon3)nc12 [Compound 322]	5.38		
Cc1cc(-c2nnc(NCCS(=O)(=O)N(C)C)o2)nc2c(C(F)(F)F)cc(C3CC3)cc12 [Compound 270]		84.7	
COCCCNC(=O)c1cc(C)c2cc(C3CC3)cc(C(F)(F)F)c2n1 [Compound 120]		99.8	
CO[C@H]1CN[C@H](CNC(=O)c2nc(N)c3cc(C4CC4)cc(C(C)(C)C)c3n2)C1 [Compound 432]	83.3		
CSCOC1(C)CC(Nc2nnc(-c3cc(C)c4cc(OCC(F)(F)F)cc(C(C)(C)C)c4n3)o2)C1 (stereo not shown) [Compound 494]	43.1		
Cc1cc(-c2nnc(Nc3cccnc3)s2)nc2c(C(C)(C)C)cc(OCC(F)(F)F)cc12 [Compound 519]	21.1		
Cc1cc(-c2nnc(N[C@H]3C[C@](O)(CF)C3)o2)nc2c(C(C)(C)C)cc(OCC(F)(F)F)cc12 [Compound 467]	0.63		
Cc1cc(-c2nnc(NCCS(N)(=O)=O)o2)nc2c(C(C)(C)C)cc(C3CC3)cc12 [Compound 395]	34.4		
CC[C@@]1(O)CN[C@H](CNC(=O)c2cc(C)c3cc(C4CC4)cc(C(C)(C)C)c3n2)C1 [Compound 430]	1450		
Cc1cc(-c2nnc(NCCOCCO)s2)nc2c(C(F)(F)F)cc(C3CC3)cc12 [Compound 292]		97.9	
Cc1cc(-c2nnc(NC3CC4(COCO4)C3)o2)nc2c(C(C)(C)C)cc(C3CC3)cc12 (stereo not shown) [Compound 515]	15.9		
Cc1cc(C(=O)NCc2ccccn2)nc2c(C(F)(F)F)cc(N(C)S(C)(=O)=O)cc12 [Compound 179]		98.9	
Cc1cc(-c2nnc(NCC3S(=O)(=O)CCS3(=O)=O)o2)nc2c(C(C)(C)C)cc(OCC(F)(F)F)cc12 [Compound 484]	2190		
CC(C)(C)c1cc(C2CC2)cc2c(N)cc(-c3nnc(NCc4ccccn4)o3)nc12 [Compound 347]	7.54		
CCCCNc1nnc(-c2cc(N)c3cc(C4CC4)cc(C(C)(C)C)c3n2)s1 [Compound 376]	0.86		
Cc1cc(-c2nnc(NCCCCO)s2)nc2c(C(F)(F)F)cc(C3CC3)cc12 [Compound 307]	14.1		
Cc1cc(-c2nnc(N[C@H]3C[S@+]([O-])C3)o2)nc2c(C(C)(C)C)cc(OCC(F)(F)F)cc12 [Compound 508]	24.3		

From patent US20120053148A1, “INHIBITORS OF HEPATITIS C VIRUS” (GILEAD SCIENCES, INC., priority 2010, published 2012)
